Experimental findings from patent US12275731B2, “Azaindole inhibitors of wild-type and mutant forms of LRRK2” (DANA-FARBER CANCER INSTITUTE, INC., priority 2018, dated 2025) are described below.

Each structure is given as a SMILES string.

One experiment has as its target T1, NEK10 (Homo sapiens, UniProt Q6ZWH5).
T1 sequence (Q6ZWH5 1-1172): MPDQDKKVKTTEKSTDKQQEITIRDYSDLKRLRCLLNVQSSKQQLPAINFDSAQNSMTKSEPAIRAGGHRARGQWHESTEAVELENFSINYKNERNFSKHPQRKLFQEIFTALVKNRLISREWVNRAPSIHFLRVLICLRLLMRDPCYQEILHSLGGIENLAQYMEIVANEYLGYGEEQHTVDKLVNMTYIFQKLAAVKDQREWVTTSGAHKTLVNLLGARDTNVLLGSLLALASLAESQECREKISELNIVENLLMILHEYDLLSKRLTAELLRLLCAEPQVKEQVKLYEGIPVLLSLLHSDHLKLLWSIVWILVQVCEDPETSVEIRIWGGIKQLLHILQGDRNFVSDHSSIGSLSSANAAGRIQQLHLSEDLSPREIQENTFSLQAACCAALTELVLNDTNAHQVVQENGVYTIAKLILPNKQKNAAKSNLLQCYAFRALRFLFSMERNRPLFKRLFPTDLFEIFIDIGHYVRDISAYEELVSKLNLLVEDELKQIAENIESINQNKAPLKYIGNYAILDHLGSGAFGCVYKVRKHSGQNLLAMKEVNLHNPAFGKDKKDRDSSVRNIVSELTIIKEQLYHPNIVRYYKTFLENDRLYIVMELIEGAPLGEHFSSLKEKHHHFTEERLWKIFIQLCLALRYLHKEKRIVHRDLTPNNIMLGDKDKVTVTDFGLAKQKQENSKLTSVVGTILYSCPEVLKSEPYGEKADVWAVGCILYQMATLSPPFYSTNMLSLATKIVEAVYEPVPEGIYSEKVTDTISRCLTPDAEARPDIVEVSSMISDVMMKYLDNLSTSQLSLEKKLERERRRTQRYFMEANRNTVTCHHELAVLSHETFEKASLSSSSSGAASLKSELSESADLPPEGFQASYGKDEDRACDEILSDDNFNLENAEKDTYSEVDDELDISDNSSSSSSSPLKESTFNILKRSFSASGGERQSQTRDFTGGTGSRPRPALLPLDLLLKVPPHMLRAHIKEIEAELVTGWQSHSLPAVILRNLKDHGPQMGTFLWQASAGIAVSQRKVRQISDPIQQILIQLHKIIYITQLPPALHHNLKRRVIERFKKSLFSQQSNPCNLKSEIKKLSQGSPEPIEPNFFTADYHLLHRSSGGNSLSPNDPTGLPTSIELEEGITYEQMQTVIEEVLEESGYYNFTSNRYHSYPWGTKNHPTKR
Put plainly: KinomeScan profiling. It counts as binding. Conditions: NEK10, 1 μM; read-out: % control. In a few lines:
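Percent-of-control values derive from RLU, calculated as (test − positive)/(negative − positive) × 100, where DMSO defines 100% and a positive control compound defines 0%. Each compound was tested at 1 μM in the 468-kinase panel; sub-35% readings indicate activity.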

Another experiment addresses T2, PDPK1 (Homo sapiens, UniProt O15530).
T2 sequence (O15530 1-556): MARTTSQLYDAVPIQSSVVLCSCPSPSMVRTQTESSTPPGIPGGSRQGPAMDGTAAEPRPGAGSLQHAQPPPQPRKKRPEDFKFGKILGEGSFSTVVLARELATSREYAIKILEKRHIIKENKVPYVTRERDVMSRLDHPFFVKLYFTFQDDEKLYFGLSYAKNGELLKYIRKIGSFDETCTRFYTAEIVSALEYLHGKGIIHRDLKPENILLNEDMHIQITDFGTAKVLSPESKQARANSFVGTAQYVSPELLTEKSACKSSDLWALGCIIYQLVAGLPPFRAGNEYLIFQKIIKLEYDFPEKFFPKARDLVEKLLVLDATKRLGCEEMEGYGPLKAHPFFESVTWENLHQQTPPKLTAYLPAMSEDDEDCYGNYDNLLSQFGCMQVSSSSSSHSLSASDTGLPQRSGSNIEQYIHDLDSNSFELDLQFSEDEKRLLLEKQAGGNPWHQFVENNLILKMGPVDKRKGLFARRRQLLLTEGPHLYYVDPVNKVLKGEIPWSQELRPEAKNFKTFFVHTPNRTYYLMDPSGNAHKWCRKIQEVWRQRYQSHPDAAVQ
Put plainly: KinomeScan profiling. It counts as binding. The conditions noted are these: PDPK1, 1 μM; read-out: % control. The method, boiled down:
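1 μM cpd in DMSO; 468-kinase panel; readout RLU. % ctrl = (cpd − pos ctrl)/(neg ctrl − pos ctrl) ×100. Pos ctrl = 0%, DMSO = 100%. Hit cut-off <35%.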

As to `CNc1c(-c2ccc(C(=O)N3CCC(N4CCOCC4)CC3)cc2)cnc2[nH]cc(Cl)c12` [Compound 96, (4-(3-chloro-4-(methylamino)-1H-pyrrolo[2,3-b]pyridin-5-yl)phenyl)(4-morpholinopiperidin-1-yl)methanone], the remaining binding at 1 µM was found to be 100% on NEK10 and 68% on PDPK1.
In the case of `O=C(c1ccc(-c2cnc3[nH]cc(Cl)c3c2NC2CCCC2)cc1)N1CCC(N2CCOCC2)CC1` [Compound 101, (4-(3-chloro-4-(cyclopentylamino)-1H-pyrrolo[2,3-b]pyridin-5-yl)phenyl)(4-morpholinopiperidin-1-yl)methanone], the remaining binding at 1 µM at NEK10 was 100%; at PDPK1 it was 94%.
Take `CNc1c(-c2cnn([C@H]3CCN(C(C)=O)C[C@@H]3F)c2)cnc2[nH]cc(Cl)c12` [Compound 77, 1-((3S,4S)-4-(4-(3-chloro-4-(methylamino)-1H-pyrrolo[2,3-b]pyridin-5-yl)-1H-pyrazol-1-yl)-3-fluoropiperidin-1-yl)ethan-1-one]: the remaining binding at 1 µM on NEK10 was 100%; at PDPK1, 94%.
